Assay results as given in US20240342138A1, “MICROTUBULE TARGETING AGENTS” (BPGbio, Inc., priority 2023, published 2024).
Where two headings read alike, the source gives them in different places.

Legend:
[1] = system: patient-derived organoids (PDOs); assay: Viability of patient-derived organoids of multiple tumor types (CellTiter-Glo, 5 days); assay type: cell-based, human
Protocol: PDOs were treated with Compound 1 or controls (vehicle control—0.1% DMSO, positive control—10% DMSO) for 5 days. Viability was assessed using the CellTiter-Glo® assay. IC50 and maximal (max) inhibition values were extrapolated from the viability curves. Exemplars of models deemed to be highly responsive (>60% max inhibition; A), responsive (40-60% max inhibition; B), and non-responsive (<40% max inhibition; C) to Compound 1 are shown. Summary of all models tested (D); NR (No Regression, ambiguous nonlinear regression curves or R2<0.65) and NA (Not Applicable, ambiguous maximum inhibition). Compiled data of N=4 replicates.
Potency of Compound 1 was evaluated in a panel of patient-derived organoids (PDOs) representative of multiple tumor types.
• 1. Cryopreserved samples (200-300 mg or more depending on study design) were prepared as described below. • 2. The collected tumors were dissociated manually (using a tumor mincing process previously developed) or using the Gentle MACS Dissociator and human Tumor Dissociation Kit (Miltenyi). After preparation, tumor fragments were cultured in DMEM+10% FBS+1× antibiotic/antimycotic (“anti-anti”) plus 1:500 Primocin antimicrobial agent for up to 7 days before filtering out large fragments (using a 500 μm filter followed by 200 μm filters). • 3. Flow-through was cultured in: Cell-Tak coated low volume flat-bottom 384-well assay plates. • 4. 10× concentrations of test agent (or DMSO as vehicle) was added to media in volumes that will vary depending on culturing conditions. • 5. Each group had quadruplicate wells, including 0.1% DMSO (final as vehicle) and 10% DMSO as positive control. • 6. PBS was plated in the perimeter wells to avoid edge-effect artifacts. • 7. Cells were treated for 5 days and viability read via Cell Titer Glo. Viability was quantitatively assessed via Cell Titer Glo at Day 0 (baseline), Day 6 (baseline), and Day 6 (compound treatment-full dose response). […]

A549 cells = assay: In vitro potency, ATPlite 1Step (NTRC Oncolines); assay type: cell-based; conditions: Homo sapiens; for Emax: A549, A549, in vitro, biphasic, read-out: Maximum effect (%)
Protocol: FIG. 13A-13B show efficacy of Compound 1 in a lung adenocarcinoma xenograft model (A549). A) In vitro potency of Compound 1 in A549 cells as evaluated by ATPlite 1Step™ Perkin Elmer (performed by NTRC Oncolines). B) A549 cells (5×10^6) were implanted subcutaneously in athymic female nude mice and tumors were allowed to grow to a volume of ˜112 mm^3 followed by randomization of animals into three (3) groups (vehicle control, 75 mg/kg, 150 mg/kg Compound 1) with 12 animals per group. A Compound 1 solid dispersion was prepared prior to each dosing and administered by oral gavage two times a day (BID). Mean tumor volume of each group over time and the growth of tumor in each individual animal was graphed. For each individual animal of […] group TGI (%) was calculated based on the tumor growth inhibition of individual tumor at each given day of the study compared to the average of the group for that given day of the study. P-values were calculated using two-tailed distribution and two-sample equal variance (homoscedastic) for each group treated with Compound 1 for each given day of the study in reference to vehicle control. NS p>0.05; *p≤0.05; **p≤0.01; ***p p≤0.001; **** p≤0.0001.
A549 is a human lung adenocarcinoma cell line isolated from the lung tissue of their origin. […] A549 cells were implanted subcutaneously in nude mice and tumors were allowed to grow to an average volume of 112 mm^3 followed by randomization into three (3) groups consisting of vehicle control, 75 mg/kg and 150 mg/kg Compound 1 (12 animals per group). A Compound 1 solid dispersion was administered by oral gavage two times a day (BID). All animals remained in the study until Day 28 except one animal from Group 3 (Animal #29), which exited the study on Day 11 due to more than 20% body weight loss. This animal was excluded from all analysis. Data from Day 14-18 were excluded from the analysis due to inconsistencies in data collection methods.

P-gp = P-gp (Homo sapiens, UniProt P08183); assay: P-gp substrate status; assay type: in vitro ADME
P-gp, sequence (P08183 whole entry): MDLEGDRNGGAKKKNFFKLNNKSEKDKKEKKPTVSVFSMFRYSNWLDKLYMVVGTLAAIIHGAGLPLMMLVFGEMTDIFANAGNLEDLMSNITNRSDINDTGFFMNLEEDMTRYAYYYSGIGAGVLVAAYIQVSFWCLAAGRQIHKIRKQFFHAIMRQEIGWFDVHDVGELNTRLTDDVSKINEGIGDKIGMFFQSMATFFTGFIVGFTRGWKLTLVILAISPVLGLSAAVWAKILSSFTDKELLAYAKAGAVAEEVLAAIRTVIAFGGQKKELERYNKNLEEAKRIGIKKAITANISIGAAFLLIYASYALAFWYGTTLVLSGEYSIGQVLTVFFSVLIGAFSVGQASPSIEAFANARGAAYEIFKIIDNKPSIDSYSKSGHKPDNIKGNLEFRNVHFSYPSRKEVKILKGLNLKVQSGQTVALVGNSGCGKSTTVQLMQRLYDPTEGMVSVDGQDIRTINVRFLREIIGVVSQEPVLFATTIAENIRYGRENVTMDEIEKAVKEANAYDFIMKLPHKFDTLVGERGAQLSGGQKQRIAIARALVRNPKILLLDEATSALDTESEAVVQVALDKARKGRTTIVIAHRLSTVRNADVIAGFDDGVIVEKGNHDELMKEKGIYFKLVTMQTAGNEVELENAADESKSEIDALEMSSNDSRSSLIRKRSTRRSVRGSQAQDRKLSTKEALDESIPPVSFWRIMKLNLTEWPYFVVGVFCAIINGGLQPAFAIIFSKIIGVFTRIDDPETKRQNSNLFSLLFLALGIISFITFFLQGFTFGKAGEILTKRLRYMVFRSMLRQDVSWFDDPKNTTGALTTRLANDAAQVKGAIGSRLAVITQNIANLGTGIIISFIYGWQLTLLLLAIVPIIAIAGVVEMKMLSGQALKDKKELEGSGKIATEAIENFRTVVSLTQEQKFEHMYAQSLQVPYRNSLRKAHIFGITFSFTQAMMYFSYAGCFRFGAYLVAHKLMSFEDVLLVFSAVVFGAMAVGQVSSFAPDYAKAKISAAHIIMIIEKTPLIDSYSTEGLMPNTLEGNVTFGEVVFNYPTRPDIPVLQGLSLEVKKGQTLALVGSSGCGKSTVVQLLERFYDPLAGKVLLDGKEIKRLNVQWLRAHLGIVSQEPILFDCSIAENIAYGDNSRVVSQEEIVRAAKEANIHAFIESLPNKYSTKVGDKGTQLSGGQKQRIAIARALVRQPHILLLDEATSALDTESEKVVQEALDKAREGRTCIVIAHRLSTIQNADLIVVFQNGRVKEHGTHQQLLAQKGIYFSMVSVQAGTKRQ

**Q.** Which results are given for `COc1ccccc1-c1nc(CNC(=O)c2ccccc2OC(F)F)n[nH]1` [Compound 1, 2-(difluoromethoxy)-N-[[5-(2-methoxyphenyl)-1H-1,2,4-triazol-3-yl]methyl]benzamide]?
**A.** Response of PDO models (max inhibition class) ([1]; Glioblastoma multiforme, SCLC, ovarian, endometrial, breast, prostate cancer, renal cell carcinoma): responsive (responsive (40-60% max inhibition)); Response of PDO models (max inhibition class) ([1]; colorectal cancer (FIG. 7C)): non-responsive (non-responsive (<40% max inhibition)); Response of PDO models (max inhibition class) ([1]; endometrial cancer, SCLC, sarcoma, breast cancer, NSCLC, ovarian cancer): highly responsive (highly responsive (>60% max inhibition)); Emax (A549 cells; at highest concentration tested): 100%; Emax (A549 cells; first phase): 52%; IC50 (A549 cells; A549, biphasic response, first phase): 53 nM; P-gp substrate (P-gp): not a substrate for P-gp
